Values after ≈ are worked out from the molar mass of the structure shown. Read-outs that look alike come from different tables or passages of the source.
Assays:
C. glutamicum pks13 = test: MIC, resazurin assay, C. glutamicum pks13 deletion mutant; format: cell-based, Corynebacterium glutamicum; conditions: modified Gompertz function
CYP2D6 = CYP2D6 (Homo sapiens, UniProt P10635); test: biochemical; format: in vitro ADME; conditions: human liver microsomes
Experimental: (§1) Compounds were solubilized to 10 mM in DMSO. The BGAz compounds were incubated at concentrations of 0.003, 0.009, 0.03, 0.08, 0.25, 0.74, 2.2, 6.7, and 20 μM with CYP1A2, CYP2C9, CYP2C19, and CYP2D6 at 37 °C in the presence of the drug-like probe substrate […] the Phase 1 cofactor NADPH (1 mM). The formation of metabolites of the drug-like probe substrates in the absence and presence of the BGAz compound was monitored by LC-MS/MS, and the IC50 value was determined. All assays had two replicates per compound and included a positive control inhibitor.

CYP2C19 = CYP2C19 (Homo sapiens, UniProt P33261); test: biochemical; format: in vitro ADME; conditions: for CYP2C19 inhibition (in words) / IC50: human liver microsomes
Chain of CYP2C19 (P33261 whole entry): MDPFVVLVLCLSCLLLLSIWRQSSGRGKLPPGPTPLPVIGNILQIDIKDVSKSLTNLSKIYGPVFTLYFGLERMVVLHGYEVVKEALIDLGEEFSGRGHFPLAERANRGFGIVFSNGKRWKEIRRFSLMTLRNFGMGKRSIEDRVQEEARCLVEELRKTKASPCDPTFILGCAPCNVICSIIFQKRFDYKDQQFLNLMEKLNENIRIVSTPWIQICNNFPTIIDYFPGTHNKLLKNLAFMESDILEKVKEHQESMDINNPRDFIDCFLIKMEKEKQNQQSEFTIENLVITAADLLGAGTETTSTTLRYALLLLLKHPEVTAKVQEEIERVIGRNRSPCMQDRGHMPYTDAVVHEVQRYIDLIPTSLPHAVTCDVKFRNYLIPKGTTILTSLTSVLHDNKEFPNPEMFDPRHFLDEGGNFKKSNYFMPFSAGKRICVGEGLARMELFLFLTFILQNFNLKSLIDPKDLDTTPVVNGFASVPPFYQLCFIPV
Experimental: as §1

CYP2C9 = CYP2C9 (Homo sapiens, UniProt P11712); test: biochemical; format: in vitro ADME; conditions: for IC50: human liver microsomes
Chain of CYP2C9 (P11712 whole entry): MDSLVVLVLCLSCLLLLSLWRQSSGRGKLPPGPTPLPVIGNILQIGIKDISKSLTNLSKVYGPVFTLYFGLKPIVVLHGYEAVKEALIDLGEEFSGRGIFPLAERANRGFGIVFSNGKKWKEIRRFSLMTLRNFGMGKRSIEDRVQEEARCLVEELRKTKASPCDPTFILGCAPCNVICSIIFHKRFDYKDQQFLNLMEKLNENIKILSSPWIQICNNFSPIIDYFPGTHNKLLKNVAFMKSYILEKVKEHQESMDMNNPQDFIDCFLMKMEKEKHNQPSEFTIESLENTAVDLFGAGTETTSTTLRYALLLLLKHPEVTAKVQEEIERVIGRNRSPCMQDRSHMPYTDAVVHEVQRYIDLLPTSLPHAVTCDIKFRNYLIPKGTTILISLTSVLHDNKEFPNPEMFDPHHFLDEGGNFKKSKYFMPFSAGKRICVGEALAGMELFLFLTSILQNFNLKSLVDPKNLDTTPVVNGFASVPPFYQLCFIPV
Experimental: as §1

M. tuberculosis 1192/015 = test: microbe, parasite or virus in culture; format: cell-based; conditions: Mycobacterium tuberculosis, 1192/015, read-out: M. tb 1192/015 MIC99
CYP1A2 = target: T1, CYP1A2 (Homo sapiens, UniProt P05177); test: Cytochrome P450 inhibition, CYP1A2; format: in vitro ADME; conditions: human liver microsomes
T1 construct: from tissue; host or cells: human liver microsomes
T1 sequence (P05177 1-516): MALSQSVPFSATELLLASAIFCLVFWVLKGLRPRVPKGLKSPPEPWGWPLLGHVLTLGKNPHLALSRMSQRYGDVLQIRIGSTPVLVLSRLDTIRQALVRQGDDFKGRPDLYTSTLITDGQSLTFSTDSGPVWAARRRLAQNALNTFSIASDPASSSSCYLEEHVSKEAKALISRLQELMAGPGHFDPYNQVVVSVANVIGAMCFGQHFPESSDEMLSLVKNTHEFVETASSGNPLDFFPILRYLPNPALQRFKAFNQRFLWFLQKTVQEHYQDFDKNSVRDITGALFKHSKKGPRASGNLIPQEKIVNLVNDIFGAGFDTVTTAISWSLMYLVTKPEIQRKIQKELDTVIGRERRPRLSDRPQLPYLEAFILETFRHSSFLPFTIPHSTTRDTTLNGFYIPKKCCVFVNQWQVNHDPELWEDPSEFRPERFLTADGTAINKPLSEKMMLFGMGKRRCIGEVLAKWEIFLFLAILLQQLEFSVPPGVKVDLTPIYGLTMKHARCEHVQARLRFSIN
Experimental: as §1

[1] = Kinetic solubility (turbidimetry); format: physicochemical; conditions: PBS pH 7.4, 1% DMSO, 25 °C
M. tuberculosis H37Rv = test: MIC, resazurin microtiter assay (REMA), H37Rv; format: cell-based; conditions: Mycobacterium tuberculosis, drug-sensitive reference strain, read-out: M. tb H37Rv MIC99
Experimental: The previously described resazurin microtiter assay (REMA) plate method was used.[73],[74] Compounds were two-fold serially diluted in CAMR Mycobacterium Medium MOD2 (CMM MOD2).[75] Individual wells, in a 96-well plate, were inoculated with 1 × 10^6 CFU mL^–1 bacilli and incubated for 7 days at 37 °C with agitation (200 rpm). Following this, resazurin solution was added to wells (0.02% (w/v) in PBS pH 7.4, supplemented with 5% Tween 80).[76] The 96-well plates were incubated at room temperature for 6 h. The OD570nm of each well was recorded using a Tecan Sunrise plate reader. The minimum inhibitory concentration (MIC99) was calculated using a modified Gompertz function.[77] The optical density measurements for each drug concentration were compared to vehicle control to determine the percentage reduction in bacterial optical density.

M. tb H37Ra::pTYOK = format: cell-based, Mycobacterium tuberculosis; conditions: autoluminescent strain, >50% RLU inhibition on day 3
[2] = Mouse PPB, rapid equilibrium dialysis; format: in vitro ADME; conditions: mouse plasma (100%), RED, 37 °C
Experimental: Compounds were solubilized (10 mM in DMSO), and rapid equilibrium dialysis (RED) was used to measure the percentage binding to mouse plasma protein of the BGAz compounds at a final concentration of 5 μM. The BGAz compound was incubated in 100% mouse plasma and dialyzed against buffer in a RED device for 4 h at 37 °C in a 5% CO2 incubator, with continuous shaking at 200 rpm. Samples were matrix-matched and analyzed by LC-MS/MS against a six-point standard curve prepared with 100% plasma. All experiments were performed in triplicate.

[3] = Caco-2 permeability and efflux; format: in vitro ADME; conditions: human, pH 7.4, 2 h; for efflux ratio at 2 h, 10 μM: Caco-2, pH 7.4, 10 μM; for Papp B→A at 2 h, 10 μM: Caco-2, read-out: Caco-2 B-A Paap
Experimental: Compounds were solubilized (10 mM in DMSO), and the CacoReady Kit from ReadyCell S.L. (Barcelona, Spain) was used to determine compound permeability. Differentiated and polarized Caco-2 cells (21-day system) were plated on a 96-transwell permeable system as a single monolayer to allow for automated high throughput screening of compounds, and 10 μM BGAz compound was added to the system in HBSS buffer (pH 7.4) and incubated for 2 h at 37 °C in a CO2 incubator. Lucifer yellow was used as a cell monolayer integrity marker. Drug transport was assessed in both directions [apical to basolateral (A-B) and basolateral to apical (B-A)] across the cell monolayer. […] The BGAz compound concentrations were quantified using a calibration curve following analysis by LC-MS/MS, and the apparent permeability coefficient (Papp) and efflux ratio of the compound across the monolayer were calculated. The efflux ratio is used as an indicator of active efflux. The permeability coefficient (Papp) was calculated from the following equation: [drawing 2] 2 where dQ/dt is the amount of compound in the basal (A-B) or apical (B-A) compartment as a function of time (nmol/s). C0 is the initial concentration in the donor (apical or basal) compartment (Mean of T = 0) (nmol/mL) and A is the area of the transwell (cm^2).
The efflux ratio was then calculated as [drawing 3] 3
All experiments were performed in triplicate, and the MDR1 efflux markers Digoxin, quinidine, and […] were used as positive controls.

[4] = preincubated 30 min prior to NADPH, read-out: CYP2D6 [pre-inc] IC50
[5] = without pre-incubation, read-out: CYP2D6 IC50
[6] = preincubated 30 min prior to NADPH, read-out: CYP2C19 [pre-inc] IC50
[7] = without pre-incubation, read-out: CYP2C19 IC50
[8] = preincubated 30 min prior to NADPH, read-out: CYP2C9 [pre-inc] IC50
[9] = without pre-incubation, read-out: CYP2C9 IC50
[10] = preincubated 30 min prior to NADPH, read-out: CYP1A2 [pre-inc] IC50
[11] = without pre-incubation, read-out: CYP1A2 IC50

Chain of CYP2D6 (P10635 whole entry): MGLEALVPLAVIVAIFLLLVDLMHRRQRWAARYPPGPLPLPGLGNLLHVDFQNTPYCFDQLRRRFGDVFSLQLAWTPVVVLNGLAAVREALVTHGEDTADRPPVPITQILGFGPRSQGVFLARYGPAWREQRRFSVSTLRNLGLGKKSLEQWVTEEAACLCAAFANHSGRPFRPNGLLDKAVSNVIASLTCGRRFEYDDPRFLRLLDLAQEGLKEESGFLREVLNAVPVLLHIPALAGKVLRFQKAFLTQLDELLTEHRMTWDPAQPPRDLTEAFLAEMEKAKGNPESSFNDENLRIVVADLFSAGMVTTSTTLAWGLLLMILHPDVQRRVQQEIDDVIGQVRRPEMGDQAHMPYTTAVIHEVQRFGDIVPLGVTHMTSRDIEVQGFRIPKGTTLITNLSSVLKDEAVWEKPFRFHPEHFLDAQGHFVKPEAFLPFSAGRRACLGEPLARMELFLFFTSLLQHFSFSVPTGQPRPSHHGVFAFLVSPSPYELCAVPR

Row | SMILES | C. glutamicum pks13 MIC (C. glutamicum pks13) | CYP2D6 inhibition (in words) (CYP2D6) | IC50 (CYP2D6; [4]) | IC50 (CYP2D6; [5]) | CYP2C19 inhibition (in words) (CYP2C19) | IC50 (CYP2C19; [6]) | IC50 (CYP2C19; [7]) | IC50 (CYP2C9; [8]) | IC50 (CYP2C9; [9]) | MIC99 (M. tuberculosis 1192/015) | IC50 (CYP1A2; [10]) | IC50 (CYP1A2; [11]) | solubility kinetic at 5 min [1] | MIC99 (M. tuberculosis H37Rv) | M. tb H37Ra::pTY OK MIClux50 (M. tb H37Ra::pTYOK) | fraction unbound at 4 h, 5 μM [2] | efflux ratio at 2 h, 10 μM [3] | Papp B→A at 2 h, 10 μM [3] | CYP2C19 inhibition (in words), preincubated (CYP2C19; preincubated for 30 min prior to initiation of catalysis) | CYP2C9 inhibition (in words) (CYP2C9; preincubated for 30 min prior to the addition of NADPH)
1 | CNCC1CC(c2ccc(OC(F)(F)F)cc2)N1Cc1ccccc1OC(F)(F)F (stereo not shown) [BGAz-005] | 10 | significant inhibition | 0.01 µM | 0.06 µM | negligible inhibition | 15.8 µM | > 20 µM | > 20 µM | > 20 µM | 23.2 µM (≈ 10.1 µg/mL) | > 20 µM | > 20 µM | 117 µM (≈ 50.8 µg/mL) | 7.2 µM (≈ 3.13 µg/mL) | 4.5 μM | < 0.01 | < 1 | 1.4 ×10⁻⁶ cm/s | – | –
2 | FC(F)(F)Oc1ccc(C2CC(CN3CCCC3)N2Cc2ccccc2OC(F)(F)F)cc1 (stereo not shown) [BGAz-002] | 50 | significant inhibition | 0.08 µM | 0.19 µM | negligible inhibition | > 20 µM | > 20 µM | > 20 µM | > 20 µM | 37.8 µM (≈ 17.9 µg/mL) | > 20 µM | > 20 µM | 57 µM (≈ 27 µg/mL) | 6.2 µM (≈ 2.94 µg/mL) | 9.2 μM | < 0.01 | 1.2 | 2.8 ×10⁻⁶ cm/s | – | –
3 | Brc1cc(Br)cc(C2CC(CN3CCCC3)N2Cc2ccccc2Br)c1 (stereo not shown) [BGAz-004] | 10 | significant inhibition | 1.05 µM | 1.97 µM | – | 2.04 µM | > 15.1 µM | 17.8 µM | > 20 µM | 15.4 µM (≈ 8.36 µg/mL) | > 20 µM | > 20 µM | 9 µM (≈ 4.89 µg/mL) | 3.3 µM (≈ 1.79 µg/mL) | 7.03 μM | < 0.01 | 1.4 | 0.5 ×10⁻⁶ cm/s | strong inhibitory activity | minimal CYP2C9 inhibition
